Test results from patent US11752155B2, “Treatment of autism spectrum disorders, obsessive-compulsive disorder and anxiety disorders” (Rugen Holdings (Cayman) Limited, priority 2016, dated 2023).
pIC50: −log10 of the molar value. Values joined by “and” are separate entries in the source; they are usually repeats but may differ in a detail not shown here. Equal values may be shown once. “Also recorded” adds a separate entry of the source. Read-outs that look alike come from different tables or passages of the source.

Tests used:
hERG channel = hERG channel (Homo sapiens (Human), UniProt Q12809); assay: hERG channel inhibition, whole cell patch clamp in HEK293 cells; assay type: cell-based; details: for inhibition at 5 min, 10 µM: human, HEK293 cells stably expressing hERG channel, pH 7.35
Sequence of hERG channel (Q12809 whole entry): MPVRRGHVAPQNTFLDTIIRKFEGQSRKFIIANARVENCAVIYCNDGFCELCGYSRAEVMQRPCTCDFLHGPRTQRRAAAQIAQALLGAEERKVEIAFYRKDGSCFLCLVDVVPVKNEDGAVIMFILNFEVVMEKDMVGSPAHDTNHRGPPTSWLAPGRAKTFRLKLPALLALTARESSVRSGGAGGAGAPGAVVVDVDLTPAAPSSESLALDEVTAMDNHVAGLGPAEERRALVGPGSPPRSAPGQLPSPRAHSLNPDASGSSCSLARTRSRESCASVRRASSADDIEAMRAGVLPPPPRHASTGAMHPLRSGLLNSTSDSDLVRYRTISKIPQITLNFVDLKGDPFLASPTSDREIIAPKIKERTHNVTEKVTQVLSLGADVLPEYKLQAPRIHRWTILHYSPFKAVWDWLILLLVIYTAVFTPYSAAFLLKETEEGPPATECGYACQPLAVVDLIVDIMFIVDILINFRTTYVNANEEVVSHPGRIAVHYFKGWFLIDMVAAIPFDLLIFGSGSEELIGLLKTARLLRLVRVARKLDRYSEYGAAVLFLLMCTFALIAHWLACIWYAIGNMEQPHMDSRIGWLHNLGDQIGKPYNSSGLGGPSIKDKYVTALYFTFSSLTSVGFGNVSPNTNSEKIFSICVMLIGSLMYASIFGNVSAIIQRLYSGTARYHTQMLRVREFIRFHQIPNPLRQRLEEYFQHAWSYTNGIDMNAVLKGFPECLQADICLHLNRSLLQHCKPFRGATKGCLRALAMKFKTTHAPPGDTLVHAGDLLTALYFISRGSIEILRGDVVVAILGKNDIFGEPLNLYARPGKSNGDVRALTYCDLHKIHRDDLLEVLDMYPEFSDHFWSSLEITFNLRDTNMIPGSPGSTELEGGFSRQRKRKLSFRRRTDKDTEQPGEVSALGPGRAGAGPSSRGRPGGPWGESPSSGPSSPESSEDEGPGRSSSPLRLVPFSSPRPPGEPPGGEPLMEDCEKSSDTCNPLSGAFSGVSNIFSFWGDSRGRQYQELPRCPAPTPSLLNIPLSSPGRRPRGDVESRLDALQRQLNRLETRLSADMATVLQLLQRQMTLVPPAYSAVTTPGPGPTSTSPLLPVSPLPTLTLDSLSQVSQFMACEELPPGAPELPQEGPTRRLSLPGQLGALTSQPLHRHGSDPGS

Sapap3 knockout mice = assay: Grooming Test in Sapap3 knockout mice; assay type: in vivo, mouse; details: for tachyphylaxis with repeated weekly dosing: dosed IP on Days 1, 15, 22, 29; for acute effect on excessive self-grooming: single IP dose, Day 1
Procedure: (§1) Animals. The breeding conditions and genotyping methods for Sapap3 and Shank3 complete knockout mice were the same as described in Welch et al. (Nature 2007, 448(7156):894-900) and in Wang et al. (Nat. Commun. 2016, 7:11459), respectively. Homozygous knockout mice and littermate wild type mice of both genders were used at 4 to 8 weeks of age.
(§2) Compound formulation. The test compounds were dissolved in a small volume of dimethyl sulfoxide (DMSO) and diluted in an aqueous solution of 2-hydroxypropyl-beta-cyclodextrin (HP-β-CD) and administered IP. Dosing volume was 10 mL/kg. At 20 minutes after dosing, the mice were subjected to the behavioral test as described below.
(§3) Testing room and apparatus. The test room was maintained under the same conditions as the colony rooms, except the mice were housed in conventional shoe-box cages with food, water, and nesting materials. Animals were housed in the test room 48-72 hours prior to testing, in order to permit the mice to fully acclimate to the test room and conventional housing cages before testing. Tests were conducted in white polyvinyl-fluoride hard-sided foam test arenas (20×20×12 cm). The arenas were indirectly illuminated by dimmable LED light bars placed level with the arena floor and 30 cm away from the external wall of the test arena. This permitted the internal area of the arena to be evenly illuminated at approximately 40 lux. The illumination levels where the mice were housed before testing were about 80-100 lux.
(§4) Testing procedure. Mice were carefully placed into the test arenas 20 minutes after compound administration. Animals were given free exploration of the arena for 10 minutes, after which they were gently sprayed with 4 quick pumps of a water mist (total water volume approximated 1.5-1.7 mL). Mice were then allowed an additional 10 minutes to self-groom and engage in other behaviors before being removed from the arena. All tests were videotaped using cameras mounted above the testing arena and were saved to digital media format using Noldus Media Player software (Noldus Information Technologies, Leesburg, Va.). The mice were only tested once in the acute studies and were repeatedly tested in the sustained effect studies.
(§5) Quantitation of grooming bouts. Analyses of the video recordings were conducted with TopScan behavioral recognition software (Cleversys Inc, Reston, Va.). Configurations were made which scored time spent in grooming. […] These settings permitted automated scoring of grooming by TopScan that corresponded well to manual-scoring of these behaviors by a trained blinded observer using Noldus Observer XT9 (Noldus Information Technologies), with an average corrected kappa of 0.925 (range 0.807-0.983).
(§6) Statistical analyses. Data are presented as means and standard error of the means (SEMs). Analyses were conducted using SPSS 23 (IBM SPSS Statistics, Chicago, Ill.). Time spent in grooming behavior (seconds) over the 10-minute pre- and post-spray time blocks were analyzed with repeated measures analyses of variance (RMANOVA). The pre- and post-spray times were used for the within subject effects and the genotype and compound treatment condition were used as the between subject effects. In sustained effect studies, days were also used for a within subject effect. Some analyses of total groom time were performed in Prism 7.01 (GraphPad Software, La Jolla, Calif.), with one-way ANOVAs to compare genotypes on Day 1 or with RMANOVAs to compare treatment groups within the same genotype across days. Treatments with compounds were compared independently with the vehicle. All post-hoc comparisons were performed with Bonferroni corrections for multiple comparisons to avoid a Type I error. In all cases, a p<0.05 was considered significant.
Next, the effect of two subunit-selective NR2B antagonists administered as a single IP dose and assessed 20 minutes postdose was studied in the Sapap3 knockout mice (n=6-10 mice per treatment group). […]

[1] = test system: wild type littermate mice; assay: Grooming Test in wild type littermates of Sapap3 and Shank3 complete knockout mice; assay type: in vivo, mouse; details: for effect on grooming on Day 3 / effect on grooming on Day 5: 3 mg/kg IP on Day 1, wild type littermates; for effect on grooming on Day 1: 3 mg/kg IP, wild type littermates; for acute effect on grooming on Day 1: wild type littermates of Sapap3 knockout mice, dose-dependent
Procedure: as §1, §2, §3, §4, §5, §6
The wild type littermates of the Sapap3 knockout and Shank3 complete knockout mice were retested after Day 1 compound administration to determine whether the sustained effects were unique to the knockout mice. […]

[2] = test system: wild type mice (male NMRI); assay: Marble Burying Test in wild type mice; assay type: in vivo, mouse
Procedure, shortened: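 Male NMRI mice, 12 per group, received compound in 0.5% DMSO/4% HP-β-CD PO or IP 20 min before test. Marbles (25) buried two-thirds or more in sawdust were counted over a blind 30-min session. Groups were compared with vehicle by Kruskal-Wallis then Mann-Whitney U.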

CYP2D6 = CYP2D6 (Homo sapiens (Human), UniProt P10635); assay: CYP P450 enzyme inhibition in pooled human liver microsomes (dextromethorphan probe); assay type: in vitro ADME; details: for inhibition at 10 min, 10 µM: human, pooled human liver microsomes, pH 7.4, probe dextromethorphan, 5 μM, read-out: CYP2D6 Inhibiton at 10 μM
Sequence of CYP2D6 (P10635 whole entry): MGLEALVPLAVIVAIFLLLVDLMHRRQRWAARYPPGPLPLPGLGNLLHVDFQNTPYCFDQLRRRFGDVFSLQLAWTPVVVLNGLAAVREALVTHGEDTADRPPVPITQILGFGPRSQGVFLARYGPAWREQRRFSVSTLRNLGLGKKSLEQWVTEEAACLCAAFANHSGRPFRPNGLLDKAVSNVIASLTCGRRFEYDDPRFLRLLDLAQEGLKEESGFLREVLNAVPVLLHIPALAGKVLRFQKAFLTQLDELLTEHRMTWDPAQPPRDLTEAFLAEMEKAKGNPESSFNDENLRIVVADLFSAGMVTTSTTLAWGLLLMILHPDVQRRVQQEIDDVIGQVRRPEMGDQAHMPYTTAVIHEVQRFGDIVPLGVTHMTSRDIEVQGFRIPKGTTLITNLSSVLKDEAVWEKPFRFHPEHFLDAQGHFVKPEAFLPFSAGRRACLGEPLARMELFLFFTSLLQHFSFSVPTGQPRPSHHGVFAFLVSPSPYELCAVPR
Procedure: Test compound concentration-dependent response studies were performed in triplicate.

[3] = single dose 1 mg/kg IP on Day 1
[4] = Mus musculus, ip, read-out: Percent Change in marbles buried relative to vehicle
[5] = Mus musculus, po, read-out: Percent Change in marbles buried relative to vehicle

SMILES | tachyphylaxis with repeated weekly dosing (Sapap3 knockout mice) | significantly reduced grooming through Day (Sapap3 knockout mice; first dose 3 mg/kg IP on Day 1) | acute effect on excessive self-grooming (Sapap3 knockout mice; 20 min postdose) | significantly reduced grooming through Day (Sapap3 knockout mice; [3]) | effect on grooming on Day 3 [1] | effect on grooming on Day 5 [1] | effect on grooming on Day 1 [1] | acute effect on grooming on Day 1 [1] | change in vivo at 0.316 mg/kg [2, 4] | change in vivo at 3 mg/kg [2, 4] | change in vivo at 10 mg/kg [2, 4] | change in vivo at 1 mg/kg [2, 5] | change in vivo at 3 mg/kg [2, 5] | change in vivo at 10 mg/kg [2, 5] | pIC50 (hERG channel; Table 1.3B) | inhibition at 5 min, 10 µM (hERG channel) | inhibition at 10 min, 10 µM (CYP2D6) | further results
FC(F)c1ccc(C(F)(F)CN2CCC(Nc3ncnc4[nH]ccc34)CC2)cc1 [C-179^A′] | no tachyphylaxis developed; also recorded: tachyphylaxis was not observed | 8 days | significantly reduced grooming; also recorded: markedly reduced excessive self-grooming | 5 days | significantly reduced grooming | comparable to the level in the vehicle-treated group | significantly reduced grooming | significantly reduced grooming | 9% | -96% | -94% | -1.1% | -81% | -99% | – | – | – | pIC50 (hERG channel; Table 1.3A): 5.85; magnitude of the reduction in self-grooming (Sapap3 knockout mice; 1 mg/kg IP, pre-spray): 43.6%; magnitude of the reduction in self-grooming (Sapap3 knockout mice; 3 mg/kg IP, pre-spray): 80.5%; magnitude of the reduction in self-grooming (Sapap3 knockout mice; 10 mg/kg IP, pre-spray): 91.7%; reductions in self-grooming (Sapap3 knockout mice; 1, 3 and 10 mg/kg IP, post-spray): 66.9% to 77.6%; significantly reduced grooming through Day (Sapap3 knockout mice; single dose 0.32 mg/kg IP on Day 1): 5 days; significantly reduced grooming through Day (Sapap3 knockout mice; single dose 0.56 mg/kg IP on Day 1): 5 days; sustained efficacy lasting for (Sapap3 knockout mice; single dose of 3 mg/kg IP): 1 week; change in vivo at 1.78 mg/kg ([2]; Mus musculus, po, 1.78 mg/kg, read-out: Percent Change in marbles buried relative to vehicle): -81%
Cc1ccc(COC(=O)N2CC[C@H](CNc3ncccn3)C(F)(F)C2)cc1 [E1-22.2^B′] | – | 22 days | significantly reduced grooming | 19 days | significantly reduced grooming | comparable to the level in the vehicle-treated group | significantly reduced grooming | significantly reduced grooming | -68% | -93% | -97% | – | -88% | -99% | < 5.00 and 4.77 | – | – | pIC50 (CYP2D6; Table 1.4B): < 4.30; change in vivo at 0.03 mg/kg ([2]; Mus musculus, ip, 0.03 mg/kg, read-out: Percent Change in marbles buried relative to vehicle): -9%; change in vivo at 0.1 mg/kg [2, 4]: -13%; change in vivo at 0.3 mg/kg [2, 4]: -92%; change in vivo at 0.1 mg/kg [2, 5]: 14%; change in vivo at 0.3 mg/kg [2, 5]: 16%; efficacy in the Marble Burying Test ([2]; lowest test concentration of 1 mg/kg, IP): fully efficacious
Cc1ccc(COC(=O)N2CC[C@H](CNc3cnc(C)cn3)C(F)(F)C2)cc1 [E1-21.26^B′] | without tachyphylaxis | 5 days | significantly reduced grooming | – | – | – | – | significantly reduced grooming | -14% | -97% | -96% | 8% | -41% | -78% | – | 39% | 32% | effects lasting through Day after the fourth and final dose on Day 29 (Sapap3 knockout mice; 3 mg/kg IP on Days 1, 15, 22, 29): 40 days; effects lasting through Day after the fourth and final dose on Day 29 (Sapap3 knockout mice; 10 mg/kg IP on Days 1, 15, 22, 29): 43 days; significant reduction in grooming wore off by Day (Sapap3 knockout mice; first dose of 3 mg/kg IP): 8 days
Cc1ccc(COC(=O)N2CC[C@H](CNc3nccn4cnnc34)C(F)(F)C2)cc1 [E1-1.2^B′] | – | – | markedly reduced excessive self-grooming | – | – | – | – | – | – | – | – | – | – | – | 4.40 | 17% | 14% | magnitude of the reduction in self-grooming (Sapap3 knockout mice; 3 mg/kg IP, 20 min postdose, pre- and post-spray): 70%-80%; magnitude of the reduction in self-grooming (Sapap3 knockout mice; 10 mg/kg IP, 20 min postdose, pre- and post-spray): > 90%; magnitude of the reduction in self-grooming (Sapap3 knockout mice; 30 mg/kg IP, 20 min postdose, pre- and post-spray): > 90%
